Assay results: patent publication US8722864B2 (Nutek Pharma Ltd., priority 2010, dated 2014)
Values joined by “and” are separate entries in the source; they are usually repeats but may differ in a detail not shown here. Identical values can stand only once.

Legend:
[1] = Solution stability (hydrolysis) in phosphate-buffered D2O at pD 5, 6, 7 monitored by 1H NMR; type: physicochemical; conditions: for stability to the pD's (in words): pD 5, 6, 7 in D2O; for Time to % hydrolysis t10% / Time to % hydrolysis t25% / Time to % hydrolysis t50%: 23° C.; for change in 1H NMR spectra: after 167 days, pD 5, 6, 7
Protocol: 10 mL (11.07 g) D2O was placed in 3 separate vials with a stir bar and 0.002 moles (0.272 g) monobasic potassium phosphate (KH2PO4) was added to each. With the pD metered, NaOD/D2O was added drop-wise to each to adjust the pD's to 5.0, 6.0, and 7.0. Each of these solutions was gently boiled before use. Thus each vial contained […] phosphate buffered solution. […] The sample was sterilized by heating for 10 seconds, and after it had cooled down to ambient temperature (about 1 minute), 0.3 mL of one of the 0.2 mM 3 buffered solutions was added. The 0.6 mL sample was then placed in a sterilized NMR tube and the tube sealed and labeled. Each of the samples was stored at 23° C. protected from the light and monitored by ^1H NMR (64 scans for each sample) periodically.

[2] = Water (D2O) solubility by 1H NMR against DSS standard; type: physicochemical; conditions: for solubility at 3 days: water, thermodynamic from solid
Protocol: The method use involved stirring the sample in D2O for a period of 3 days, followed by filtration using a 0.2μ syringe filter. A measured volume of this saturated solution was diluted with a standard solution of DSS in D2O, and a ^1H NMR was taken. Integration of the DSS peaks compared to that of the analog would allow for the determination of its concentration, and thus the concentration of the saturated solution.

[3] = rat, in vivo, iv; for AUCinf/AUClast of the pro-drug: male, Sprague-Dawley
in vivo = conditions: male, Sprague-Dawley, rat, iv
[4] = water; cited from earlier work
[5] = Pharmacokinetics after intravenous administration in male Sprague-Dawley rats; conditions: for mean concentration of acetaminophen in rat plasma or blood: 66 μmol/kg nominal, plasma (blood for 18, 19);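 for all read-outs here: rats fasted overnight before dosing and fed about 4 h afterwards, with serial blood sampled through a carotid artery catheter at each time point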
[6] = stirred 3 days in D2O, 0.2 μ filtered
[7] = acetaminophen analyte after IV dose of acetaminophen or pro-drug, rat

Row | relative molar solubility [2] | solubility at 3 days [2] | AUCinf/AUClast of the pro-drug [3] [%] | AUC of the pro-drug (in words) [3] | half-lives of the pro-drug (in words) [3] | change in 1H NMR spectra [1] | AUC(0-inf) (in vivo) [µM·h] | AUC(0-t) (in vivo) [µM·h] | C0 (in vivo) [µM] | MRT inf (in vivo) [min] | Vd (in vivo) [L/kg] | clearance (in vivo) [mL/min/kg] | half-life (in vivo) [min] | Compound | further results
1 | 1.8 | 51000 µg/mL and 164000 µM | 100 | low | – | no change | 44.9 | 44.9 | 336 | 14.2 | 0.349 | 24.7 | 39.5 | CC(=O)Nc1ccc(O[C@H]2O[C@H](CO)[C@@H](O)[C@H](O)[C@@H]2O)cc1 [compound 8, 1-(4′-acetamidophenoxy) mannose] | –
2 | 0.3 | 9000 µg/mL and 31000 µM | – | – | – | – | – | – | – | – | – | – | – | CC(=O)Nc1ccc(O[C@@H]2CCC(O)[C@@H](CO)O2)cc1 (some centres unmarked) [compound 12, 1-(4′-acetamidophenoxy) 2,3-dideoxy glucose] | stability to the pD's (in words) [1]: a lot of instability; Time to % hydrolysis t10% ([1]; pD 5, D2O): 7 days; Time to % hydrolysis t25% ([1]; pD 5, D2O): 20 days; Time to % hydrolysis t50% ([1]; pD 5, D2O): 58 days; Time to % hydrolysis t10% ([1]; pD 6, D2O): 48 days
3 | 2.1 | 60000 µg/mL and 202000 µM | 100 | high | relatively high | – | 44.1 | 44 | 123 | 52.7 | 1.58 | 24.9 | 116 | CC(=O)Nc1ccc(O[C@H]2O[C@H](C)[C@@H](O)[C@H](O)[C@@H]2O)cc1 [compound 23, 1-(4′-acetamidophenoxy)-6-deoxymannose] | –
4 | – | – | – | – | – | no change | – | – | – | – | – | – | – | acetaminophen | D2O solubility (mM) [2, 6]: 95 mM; D2O solubility (mg/mL) [2, 6]: 13 mg/mL; literature value of acetaminophen's solubility [4]: 14 mg/mL; mean concentration of acetaminophen in rat plasma or blood ([5]; 2 min after IV dose of acetaminophen or pro-drug): 133.854 µM; mean concentration of acetaminophen in rat plasma or blood ([5]; 5 min after IV dose of acetaminophen or pro-drug): 89.75 µM; mean concentration of acetaminophen in rat plasma or blood ([5]; 0.250 h after IV dose of acetaminophen or pro-drug): 45.118 µM; mean concentration of acetaminophen in rat plasma or blood ([5]; 0.500 h after IV dose of acetaminophen or pro-drug): 23.661 µM; mean concentration of acetaminophen in rat plasma or blood ([5]; 2.00 h after IV dose of acetaminophen or pro-drug): 0.823 µM; mean concentration of acetaminophen in rat plasma or blood ([5]; 4.00 h after IV dose of acetaminophen or pro-drug): 0.528 µM; mean concentration of acetaminophen in rat plasma or blood ([5]; 6.00 h after IV dose of acetaminophen or pro-drug): 0.237 µM; mean concentration of acetaminophen in rat plasma or blood ([5]; 8.00 h after IV dose of acetaminophen or pro-drug): 0.108 µM; AUCinf of acetaminophen [5, 7]: 41.231 µM·h; AUCinf/AUClast of acetaminophen [5, 7]: 100%; AUClast of acetaminophen [5, 7]: 41.031 µM·h; MRTinf of acetaminophen [5, 7]: 39.7 min; Vdss of acetaminophen [5, 7]: 1.06 L/kg; t1/2 of acetaminophen from the pro-drug [5, 7]: 148 min; C0 ([5]; read-out: C0 of acetaminophen, acetaminophen analyte after IV dose of acetaminophen or pro-drug, extrapolated to time 0): 175 µM

Further lines, the compound ahead of its results:

Row | Compound | relative molar solubility [2] | solubility at 3 days [2] | AUCinf/AUClast of the pro-drug [3] [%] | AUC of the pro-drug (in words) [3] | half-lives of the pro-drug (in words) [3] | change in 1H NMR spectra [1] | AUC(0-inf) (in vivo) [µM·h] | AUC(0-t) (in vivo) [µM·h] | C0 (in vivo) [µM] | MRT inf (in vivo) [min] | Vd (in vivo) [L/kg] | clearance (in vivo) [mL/min/kg] | half-life (in vivo) [min] | further results
5 | CC(=O)Nc1ccc(O[C@@H]2C=C[C@H](O)[C@@H](CO)O2)cc1 [compound 1, N-(4-((2R,5S,6R)-5-hydroxy-6-(hydroxymethyl)-5,6-dihydro-2H-pyran-2-yloxy)phenyl)acetamide] | 0.6 | 14000 µg/mL and 53000 µM | – | – | – | – | – | – | – | – | – | – | – | stability to the pD's (in words) [1]: least stable; Time to % hydrolysis t10% ([1]; pD 5, D2O): 0.3 days; Time to % hydrolysis t25% ([1]; pD 5, D2O): 0.8 days; Time to % hydrolysis t50% ([1]; pD 5, D2O): 2.0 days; Time to % hydrolysis t10% ([1]; pD 6, D2O): 2.25 days; Time to % hydrolysis t25% ([1]; pD 6, D2O): 6.25 days; Time to % hydrolysis t50% ([1]; pD 6, D2O): 17 days; Time to % hydrolysis t10% ([1]; pD 7, D2O): 5.5 days; Time to % hydrolysis t25% ([1]; pD 7, D2O): 26 days; Time to % hydrolysis t50% ([1]; pD 7, D2O): 70 days
6 | CC(=O)Nc1ccc(O[C@H]2O[C@H](CO)[C@@H](O[C@H]3O[C@H](CO)[C@@H](O)[C@H](O)[C@H]3O)[C@H](O)[C@@H]2O)cc1 [compound 5, 1-(4-acetaminophenoxy) 2-epi maltose] | >14 | > 621000 µg/mL and > 1.3e+06 µM | 106 | high | relatively high | no change | 1.69 | 1.57 | 2.49 | 39.2 | 26.8 | 759 | 79.2 | solubility (in words) [2]: highest solubility
7 | CC(=O)Nc1ccc(O[C@H]2O[C@H](COC(C)=O)[C@@H](O)[C@H](O)[C@@H]2O)cc1 [compound 15] | 5.6 | 203000 µg/mL and 570000 µM | 100 | low | – | – | 14.2 | 14.2 | 95.8 | 10.2 | 0.8 | 78.7 | 13.2 | –
8 | CCCC(=O)OC[C@H]1O[C@H](Oc2ccc(NC(C)=O)cc2)[C@@H](O)[C@@H](O)[C@@H]1O [compound 18, 1-(4′-acetamidophenoxy)-6-O-butyrylmannose] | 0.81 | 30000 µg/mL and 77000 µM | 100 | low | – | – | 3.31 | 3.3 | 43.1 | 4.56 | 1.56 | 345 | 3.13 | –
9 | CC(=O)Nc1ccc(O[C@H]2O[C@H](COC(=O)C(C)C)[C@@H](O)[C@H](O)[C@@H]2O)cc1 [compound 19, 1-(4′-acetamidophenoxy)-6-O-isobutyrylmannose] | 0.43 | 16000 µg/mL and 41000 µM | 100 | low | – | – | 3.68 | 3.68 | 31.1 | 8.7 | 1.77 | 203 | 14.6 | –
10 | CC(=O)Nc1ccc(O[C@H]2O[C@H](COC(=O)CCC(=O)O)[C@@H](O)[C@H](O)[C@@H]2O)cc1 [compound 20] | – | – | 100 | high | relatively high | – | 51.9 | 51.8 | 218 | 25.2 | 0.549 | 22.7 | 123 | –
